ChEMBL document CHEMBL4840344, “Discovery of 1,8-naphthalidine derivatives as potent anti-hepatic fibrosis agents via repressing PI3K/AKT/Smad and JAK2/STAT3 pathways” (Bioorg Med Chem, 2021)
Activity calls are given as the source filed them. The calls are words filed in the database; no cut-off is given here.

What was measured:
COL1A1 promoter [1] = experiment: Inhibition of COL1A1 promotor activity in human LX2 cells at 50 uM incubated for 24 hrs by luciferase reporter gene assay; format: cell-based
COL1A1 promoter [2] = experiment: Inhibition of COL1A1 promotor activity in human LX2 cells at 20 uM incubated for 24 hrs by luciferase reporter gene assay; format: cell-based
[3] = Cytotoxicity against human LX2 cells assessed as cell death incubated for 24 hrs by MTT assay; format: cell-based, LX-2
[4] = Anti-fibrogenic activity in human LX2 cells assessed as inhibition of TGFbeta1-induced COL1A1 mRNA expression at 10 uM incubated for 24 hrs by RT-PCR analysis; format: functional; settings: LX-2
LX2 = experiment: Inhibition of PI3K/Akt pathway in human LX2 cells assessed as inhibition of TGF-beta1 induced AKT phosphorylation at 3 to 10 uM incubated for 24 hrs by Western blot analysis; format: cell-based; settings: dose 3-10 µM
LX-2 [5] = experiment: Down regulation of STAT3 expression in TGF-beta1 induced human LX2 cells at 3 to 10 uM after 24 hrs by Western blot analysis; format: functional, cell-based; settings: dose 3-10 µM
LX-2 [6] = experiment: Down regulation of JAK3 expression in TGF-beta1 induced human LX2 cells at 3 to 10 uM after 24 hrs by Western blot analysis; format: functional, cell-based; settings: dose 3-10 µM
[7] = Anti-fibrogenic activity in human LX2 cells assessed as inhibition of TGFbeta1-induced CTGF mRNA expression at 10 uM incubated for 24 hrs by RT-PCR analysis; format: functional; settings: LX-2
[8] = Anti-fibrogenic activity in human LX2 cells assessed as inhibition of TGFbeta1-induced ACTA2 mRNA expression at 3 uM incubated for 24 hrs by RT-PCR analysis; format: functional; settings: LX-2
[9] = target: Tyrosine-protein kinase JAK2 (Homo sapiens) (UniProt O60674); experiment: Inhibition of JAK2 phosphorylation in TGF-beta1 induced human LX2 cells at 3 to 10 uM incubated for 24 hrs by Western blot analysis; format: cell-based; settings: dose 3-10 µM
[10] = Anti-fibrogenic activity in human LX2 cells assessed as inhibition of TGFbeta1-induced TGFbeta1 mRNA expression at 10 uM incubated for 24 hrs by RT-PCR analysis; format: functional; settings: LX-2
[11] = Anti-fibrogenic activity in human LX2 cells assessed as inhibition of TGFbeta1-induced MMP2 mRNA expression at 3 uM incubated for 24 hrs by RT-PCR analysis; format: functional; settings: LX-2
Rattus norvegicus [12] = experiment: Anti-fibrotic activity in Sprague-Dawley rat model of BDL-induced […] fibrosis assessed as reduction in hepatic collagen accumulation in portal areas at 200 mg/kg oral gavage for 14 days by Sirius red staining-based analysis; format: functional, organism-based; settings: time 14.0 day
[13] = Anti-fibrogenic activity in human LX2 cells assessed as inhibition of TGFbeta1-induced ACTA2 mRNA expression at 10 uM incubated for 24 hrs by RT-PCR analysis; format: functional; settings: LX-2
Rattus norvegicus [14] = experiment: Antifibrotic activity in Sprague-Dawley rat liver assessed as reduction in TGF-beta1-induced TGF-beta1 protein expression at 200 mg/kg oral gavage for 14 days by Western blot analysis; format: functional, organism-based; settings: time 14.0 day
LX-2 [15] = experiment: Anti-fibrogenic activity in human LX2 cells assessed as inhibition of TGFbeta1-induced COL1A1 protein level at 3 to 10 uM incubated for 24 hrs by Western blot analysis; format: functional, cell-based; settings: dose 3-10 µM
Rattus norvegicus [16] = experiment: Anti-fibrotic activity in Sprague-Dawley rat model of BDL-induced […] fibrosis assessed as reduction in hepatic collagen accumulation in hepatic parenchyma at 200 mg/kg oral gavage for 14 days by Sirius red staining-based analysis; format: functional, organism-based; settings: time 14.0 day
[17] = target: Mothers against decapentaplegic homolog 3 (Homo sapiens) (UniProt P84022); experiment: Inhibition of TGF-beta1 induced SMAD3 phosphorylation in human LX2 cells by Western blot analysis; format: cell-based
LX-2 [18] = experiment: Down regulation of PI3K expression in TGF-beta1 induced human LX2 cells after 24 hrs by Western blot analysis; format: functional, cell-based
Rattus norvegicus [19] = species: Rattus norvegicus; experiment: Anti-fibrotic activity in Sprague-Dawley rat model of BDL-induced […] fibrosis assessed as reduction in hepatic injury by hematoxylin and eosin staining based microscopic analysis; format: functional, organism-based
Rattus norvegicus [20] = experiment: Antifibrotic activity in Sprague-Dawley rat liver assessed as reduction in TGF-beta1-induced MMP2 protein expression at 200 mg/kg oral gavage for 14 days by Western blot analysis; format: functional, organism-based; settings: time 14.0 day
[21] = Anti-fibrogenic activity in human LX2 cells assessed as inhibition of TGFbeta1-induced MMP2 mRNA expression at 10 uM incubated for 24 hrs by RT-PCR analysis; format: functional; settings: LX-2
LX-2 [22] = experiment: Anti-fibrogenic activity in human LX2 cells assessed as inhibition of TGFbeta1-induced TGFbeta1 protein level at 3 to 10 uM incubated for 24 hrs by Western blot analysis; format: functional, cell-based; settings: dose 3-10 µM
Rattus norvegicus [23] = experiment: Antifibrotic activity in Sprague-Dawley rat liver assessed as reduction in TGF-beta1-induced alpha-SMA protein expression at 200 mg/kg oral gavage for 14 days by Western blot analysis; format: functional, organism-based; settings: time 14.0 day
LX-2 [24] = experiment: Anti-fibrogenic activity in human LX2 cells assessed as inhibition of TGFbeta1-induced CTGF protein level at 3 to 10 uM incubated for 24 hrs by Western blot analysis; format: functional, cell-based; settings: dose 3-10 µM
[25] = Anti-fibrogenic activity in human LX2 cells assessed as inhibition of TGFbeta1-induced TGFbeta1 mRNA expression at 3 uM incubated for 24 hrs by RT-PCR analysis; format: functional; settings: LX-2
LX-2 [26] = experiment: Anti-fibrogenic activity in human LX2 cells assessed as inhibition of TGFbeta1-induced MMP2 protein level at 3 to 10 uM incubated for 24 hrs by Western blot analysis; format: functional, cell-based; settings: dose 3-10 µM
[27] = Anti-fibrogenic activity in human LX2 cells assessed as inhibition of TGFbeta1-induced CTGF mRNA expression at 3 uM incubated for 24 hrs by RT-PCR analysis; format: functional; settings: LX-2
Rattus norvegicus [28] = experiment: Antifibrotic activity in Sprague-Dawley rat liver assessed as reduction in TGF-beta1-induced COL1A1 protein expression at 200 mg/kg oral gavage for 14 days by Western blot analysis; format: functional, organism-based; settings: time 14.0 day
[29] = target: Mothers against decapentaplegic homolog 2/homolog 3 (Homo sapiens) (UniProt P84022+Q15796); experiment: Inhibition of TGF-beta1 induced SMAD2/3 phosphorylation in human LX2 cells at 3 to 10 uM incubated for 24 hrs by Western blot analysis; format: cell-based; settings: dose 3-10 µM
Mothers against decapentaplegic homolog 2/homolog 3 (Homo sapiens), sequence (P84022 whole entry, looked up): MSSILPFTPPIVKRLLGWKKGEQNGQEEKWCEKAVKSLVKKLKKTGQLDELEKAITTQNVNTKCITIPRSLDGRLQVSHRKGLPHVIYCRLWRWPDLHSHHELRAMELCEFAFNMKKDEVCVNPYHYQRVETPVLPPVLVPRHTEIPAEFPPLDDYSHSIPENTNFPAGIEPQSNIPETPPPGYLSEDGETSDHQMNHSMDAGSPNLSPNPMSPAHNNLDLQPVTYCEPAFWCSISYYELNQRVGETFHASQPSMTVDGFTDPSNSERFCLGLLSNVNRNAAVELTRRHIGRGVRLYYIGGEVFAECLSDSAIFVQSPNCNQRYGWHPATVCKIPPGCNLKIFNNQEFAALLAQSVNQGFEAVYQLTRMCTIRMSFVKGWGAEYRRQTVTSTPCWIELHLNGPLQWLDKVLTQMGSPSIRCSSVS
Mothers against decapentaplegic homolog 2/homolog 3 (Homo sapiens), sequence (Q15796 whole entry, looked up): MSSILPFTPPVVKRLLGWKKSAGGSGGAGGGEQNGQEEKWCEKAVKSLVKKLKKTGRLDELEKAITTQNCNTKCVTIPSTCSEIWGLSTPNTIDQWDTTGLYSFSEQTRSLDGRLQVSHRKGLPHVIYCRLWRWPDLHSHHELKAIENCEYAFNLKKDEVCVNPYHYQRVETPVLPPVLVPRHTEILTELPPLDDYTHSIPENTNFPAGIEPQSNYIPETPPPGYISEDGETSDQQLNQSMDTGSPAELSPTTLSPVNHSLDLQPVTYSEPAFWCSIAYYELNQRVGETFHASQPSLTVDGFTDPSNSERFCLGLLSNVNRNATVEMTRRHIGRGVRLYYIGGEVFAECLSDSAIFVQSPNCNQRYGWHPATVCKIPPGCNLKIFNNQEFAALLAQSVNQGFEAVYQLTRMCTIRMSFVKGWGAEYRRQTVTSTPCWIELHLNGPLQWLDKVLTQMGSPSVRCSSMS

Tyrosine-protein kinase JAK2 (Homo sapiens), sequence (O60674 whole entry): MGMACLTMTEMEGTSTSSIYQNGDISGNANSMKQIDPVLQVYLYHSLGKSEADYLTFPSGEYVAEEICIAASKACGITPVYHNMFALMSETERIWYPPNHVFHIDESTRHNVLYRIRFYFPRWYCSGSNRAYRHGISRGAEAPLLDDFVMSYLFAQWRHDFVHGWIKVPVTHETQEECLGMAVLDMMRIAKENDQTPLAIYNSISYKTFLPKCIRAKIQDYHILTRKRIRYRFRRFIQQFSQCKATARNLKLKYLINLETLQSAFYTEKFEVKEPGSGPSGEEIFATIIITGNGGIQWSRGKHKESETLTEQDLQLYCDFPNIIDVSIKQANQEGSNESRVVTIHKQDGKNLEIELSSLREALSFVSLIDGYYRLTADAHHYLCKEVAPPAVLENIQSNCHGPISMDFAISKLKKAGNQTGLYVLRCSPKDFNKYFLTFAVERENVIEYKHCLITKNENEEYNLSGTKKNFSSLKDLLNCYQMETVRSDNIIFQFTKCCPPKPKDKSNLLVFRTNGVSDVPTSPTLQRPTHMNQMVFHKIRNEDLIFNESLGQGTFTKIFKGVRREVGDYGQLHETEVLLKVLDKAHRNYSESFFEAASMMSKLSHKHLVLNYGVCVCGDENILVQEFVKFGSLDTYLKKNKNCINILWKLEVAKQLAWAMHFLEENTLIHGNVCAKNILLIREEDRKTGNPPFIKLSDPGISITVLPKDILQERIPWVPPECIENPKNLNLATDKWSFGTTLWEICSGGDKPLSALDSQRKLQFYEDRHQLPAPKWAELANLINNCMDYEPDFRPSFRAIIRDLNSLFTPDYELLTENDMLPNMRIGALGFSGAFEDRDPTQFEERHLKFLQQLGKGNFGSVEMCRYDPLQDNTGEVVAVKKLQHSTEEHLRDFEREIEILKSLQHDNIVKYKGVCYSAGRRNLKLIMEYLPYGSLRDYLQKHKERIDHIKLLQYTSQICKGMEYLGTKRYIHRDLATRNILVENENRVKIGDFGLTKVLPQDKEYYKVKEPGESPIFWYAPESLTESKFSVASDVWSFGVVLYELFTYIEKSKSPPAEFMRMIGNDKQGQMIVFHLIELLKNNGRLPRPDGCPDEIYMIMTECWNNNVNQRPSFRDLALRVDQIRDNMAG
Mothers against decapentaplegic homolog 3 (Homo sapiens), sequence (P84022 2-425 limits assumed): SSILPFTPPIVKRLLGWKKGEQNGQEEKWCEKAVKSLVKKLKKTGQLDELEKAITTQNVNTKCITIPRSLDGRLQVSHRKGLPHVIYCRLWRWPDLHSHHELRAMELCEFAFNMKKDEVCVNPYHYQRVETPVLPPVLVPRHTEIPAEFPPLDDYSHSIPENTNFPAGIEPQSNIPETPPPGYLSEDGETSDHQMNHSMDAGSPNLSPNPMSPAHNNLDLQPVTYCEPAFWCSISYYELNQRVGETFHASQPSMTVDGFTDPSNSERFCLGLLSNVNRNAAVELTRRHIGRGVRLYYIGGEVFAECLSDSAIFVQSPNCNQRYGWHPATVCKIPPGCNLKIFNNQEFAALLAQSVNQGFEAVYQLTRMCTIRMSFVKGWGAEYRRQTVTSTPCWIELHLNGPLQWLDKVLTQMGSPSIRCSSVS

## CN(C)c1ccc2c(=O)c(C(=O)Nc3cc(F)cc(F)c3)cn(-c3ccc(Cl)c(OCCCCCCC[N+](C)(C)C4CCCCC4)c3)c2n1
COL1A1 promoter [1]
  inhibition: 81.4%
COL1A1 promoter [2]
  inhibition: 37.6%
[3]
  CC50 at 24 h: > 100 µM
[4]
  inhibition at 10 µM: 40.2%

## Cc1cc(OCCCCCCC[N+]2(C)CCCCC2)cc(-n2cc(C(=O)Nc3cc(F)cc(F)c3)c(=O)c3ccc(N(C)C)nc32)c1
COL1A1 promoter [1]
  inhibition: 79.7%
COL1A1 promoter [2]
  inhibition: 46.8%
[3]
  CC50 at 24 h: 99.4 µM
[4]
  inhibition at 10 µM: 23.1%

## CN(C)c1ccc2c(=O)c(C(=O)Nc3cc(F)cc(F)c3)cn(-c3ccc(Cl)c(OCCCCCCC[n+]4ccccc4)c3)c2n1
COL1A1 promoter [1]
  inhibition: 77.8%
COL1A1 promoter [2]
  inhibition: inactive
[3]
  CC50 at 24 h: 105 µM
[4]
  inhibition at 10 µM: 53.6%

## CC[N+]1(CCCCCCCOc2cc(-n3cc(C(=O)Nc4cc(F)cc(F)c4)c(=O)c4ccc(N(C)C)nc43)ccc2C)CCCC1
LX2
  inhibition: Dose-Dependent Effect
LX-2 [5]
  Activity: Dose-Dependent Effect
LX-2 [6]
  Activity: Dose-Dependent Effect
[7]
  inhibition at 10 µM: 67.1%
[8]
  inhibition at 3 µM: 76.3%
[9]
  inhibition: Active
[10]
  inhibition at 10 µM: 47%
COL1A1 promoter [1]
  inhibition: 81.3%
[11]
  inhibition at 3 µM: 36.8%
Rattus norvegicus [12]
  Activity: Active
COL1A1 promoter [2]
  inhibition: 57%
[13]
  inhibition at 10 µM: 83.6%
Rattus norvegicus [14]
  Activity: Active
LX-2 [15]
  inhibition: Active
Rattus norvegicus [16]
  Activity: Active
[17]
  inhibition: Dose-Dependent Effect
LX-2 [18]
  Activity: Dose-Dependent Effect
Rattus norvegicus [19]
  Activity: Active
Rattus norvegicus [20]
  Activity: Active
[21]
  inhibition at 10 µM: 52.4%
[3]
  CC50 at 24 h: 95 µM
LX-2 [22]
  inhibition: Active
Rattus norvegicus [23]
  Activity: Active
LX-2 [24]
  inhibition: Active
[25]
  inhibition at 3 µM: 28.9%
LX-2 [26]
  inhibition: Active
[27]
  inhibition at 3 µM: 32%
Rattus norvegicus [28]
  Activity: Active
[29]
  inhibition: Dose-Dependent Effect
[4]
  inhibition at 10 µM: 79.7%

## CC[N+]1(CCCCCCCOc2ccc(-n3cc(C(=O)Nc4cc(F)cc(F)c4)c(=O)c4ccc(N(C)C)nc43)cc2C)CCCC1
COL1A1 promoter [1]
  inhibition: 82.5%
COL1A1 promoter [2]
  inhibition: 44.6%
[3]
  CC50 at 24 h: > 100 µM
[4]
  inhibition at 10 µM: 48.5%

## CC[N+]1(CCCCCCCOc2cc(C)cc(-n3cc(C(=O)Nc4cc(F)cc(F)c4)c(=O)c4ccc(N(C)C)nc43)c2)CCCCC1
LX2
  inhibition: Dose-Dependent Effect
LX-2 [5]
  Activity: Dose-Dependent Effect
LX-2 [6]
  Activity: Dose-Dependent Effect
[7]
  inhibition at 10 µM: 68.1%
[8]
  inhibition at 3 µM: 74.9%
[9]
  inhibition: Active
[10]
  inhibition at 10 µM: 66%
COL1A1 promoter [1]
  inhibition: 86.6%
[11]
  inhibition at 3 µM: 40.8%
COL1A1 promoter [2]
  inhibition: 67.2%
[13]
  inhibition at 10 µM: 80.8%
LX-2 [15]
  inhibition: Active
[17]
  inhibition: Dose-Dependent Effect
LX-2 [18]
  Activity: Dose-Dependent Effect
[21]
  inhibition at 10 µM: 63.7%
[3]
  CC50 at 24 h: 97.6 µM
LX-2 [22]
  inhibition: Active
LX-2 [24]
  inhibition: Active
[25]
  inhibition at 3 µM: 18.9%
LX-2 [26]
  inhibition: Active
[27]
  inhibition at 3 µM: 30.8%
[29]
  inhibition: Dose-Dependent Effect
[4]
  inhibition at 10 µM: 70.8%

## CN(C)c1ccc2c(=O)c(C(=O)Nc3cc(F)cc(F)c3)cn(-c3ccc(OCCCCCCC[N+](C)(C)C4CCCCC4)c(Cl)c3)c2n1
COL1A1 promoter [1]
  inhibition: 86.2%
COL1A1 promoter [2]
  inhibition: 34.8%
[3]
  CC50 at 24 h: > 100 µM
[4]
  inhibition at 10 µM: 30.2%

## CN(C)c1ccc2c(=O)c(C(=O)Nc3cc(F)cc(F)c3)cn(-c3ccc(Cl)c(OCCCCCCC[N+]4(C)CCCC4)c3)c2n1
COL1A1 promoter [1]
  inhibition: 76.1%
COL1A1 promoter [2]
  inhibition: 51%
[3]
  CC50 at 24 h: 54.5 µM

## CN(C)c1ccc2c(=O)c(C(=O)Nc3cc(F)cc(F)c3)cn(-c3ccc(OCCCCCCC[n+]4ccccc4)cc3F)c2n1
COL1A1 promoter [1]
  inhibition: inactive
COL1A1 promoter [2]
  inhibition: 15.4%
[3]
  CC50 at 24 h: < 20 µM
